Experiments:
[1] = tested on: mRNA expressed from the genes (A) to (D) in rat liver; experiment: Behavior of genes (mRNA expression level, oligo-DNA microarray) in rat liver after 28-day oral administration; type: in vivo
Method in brief: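 Male F344 SPF rats, 5 weeks old, four per group, dosed by oral gavage once daily for 28 days with test chemical or matched-volume solvent. Liver total RNA profiled on oligo-DNA microarray. Change ≥1.5-fold or ≤1/1.5 versus vehicle counted as significant if its direction matched that seen with other carcinogens.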

liver = conditions: in vivo; cited from earlier work
rodent = conditions: in vivo; cited from earlier work
[2] = (C), Unigene Rn.120914, defined direction +, rat liver, oral once daily 28 days

CCOC(N)=O [TS054, Urethane]
Behavior of gene caused by administration of chemical substance, Gene No. 4846 ([1]; (A), Unigene Rn.144554, defined direction +, rat liver, oral once daily 28 days): + | Behavior of gene caused by administration of chemical substance, Gene No. 4218 ([1]; (A), Unigene Rn.167075, defined direction +, rat liver, oral once daily 28 days, significant = 1.5 times or more or 1/1.5 or less of control): − | Behavior of gene caused by administration of chemical substance, Gene No. 2026 ([1]; (A), Unigene Rn.167075, defined direction −, rat liver, oral once daily 28 days): − | Behavior of gene caused by administration of chemical substance, Gene No. 6182 ([1]; (A), Unigene Rn.5834, defined direction +, rat liver, oral once daily 28 days): + | Behavior of gene caused by administration of chemical substance, Gene No. 5600 ([1]; (A), Unigene Rn.9836, defined direction +, rat liver, oral once daily 28 days): − | Behavior of gene caused by administration of chemical substance, Gene No. 1494 ([1]; (B), Unigene Rn.1430, defined direction −, rat liver, oral once daily 28 days): − | Behavior of gene caused by administration of chemical substance, Gene No. 2045 ([1]; (B), Unigene Rn.19329, defined direction +, rat liver, oral once daily 28 days): − | Behavior of gene caused by administration of chemical substance, Gene No. 2203 ([1]; (B), Unigene Rn.21240, defined direction +, rat liver, oral once daily 28 days): − | Behavior of gene caused by administration of chemical substance, Gene No. 533 ([1]; (C), Unigene Rn.106184, defined direction +, rat liver, oral once daily 28 days): − | Behavior of gene caused by administration of chemical substance, Gene No. 725 ([1]; (C), Unigene Rn.108075, defined direction −, rat liver, oral once daily 28 days): − | Behavior of gene caused by administration of chemical substance, Gene No. 1163 ([1]; (C), Unigene Rn.11766, defined direction +, rat liver, oral once daily 28 days): − | Behavior of gene caused by administration of chemical substance, Gene No. 4973 ([1]; (C), Unigene Rn.118529, defined direction −, rat liver, oral once daily 28 days): − | Behavior of gene caused by administration of chemical substance, Gene No. 4095 ([1]; (C), Unigene Rn.119024, defined direction −, rat liver, oral once daily 28 days): − | Behavior of gene caused by administration of chemical substance, Gene No. 1334 [1, 2]: − | Behavior of gene caused by administration of chemical substance, Gene No. 6620 [1, 2]: − | Behavior of gene caused by administration of chemical substance, Gene No. 6303 ([1]; (C), Unigene Rn.123063, defined direction −, rat liver, oral once daily 28 days): − | Behavior of gene caused by administration of chemical substance, Gene No. 5878 ([1]; (C), Unigene Rn.143213, defined direction −, rat liver, oral once daily 28 days): − | Behavior of gene caused by administration of chemical substance, Gene No. 1131 ([1]; (C), Unigene Rn.144946, defined direction −, rat liver, oral once daily 28 days): − | Behavior of gene caused by administration of chemical substance, Gene No. 1562 ([1]; (C), Unigene Rn.14744, defined direction −, rat liver, oral once daily 28 days): − | Behavior of gene caused by administration of chemical substance, Gene No. 1741 ([1]; (C), Unigene Rn.1647, defined direction −, rat liver, oral once daily 28 days): − | Behavior of gene caused by administration of chemical substance, Gene No. 893 ([1]; (C), Unigene Rn.164817, defined direction +, rat liver, oral once daily 28 days): − | Behavior of gene caused by administration of chemical substance, Gene No. 6026 ([1]; (C), Unigene Rn.167685, defined direction −, rat liver, oral once daily 28 days): − | Behavior of gene caused by administration of chemical substance, Gene No. 154 ([1]; (C), Unigene Rn.185941, defined direction −, rat liver, oral once daily 28 days): − | Behavior of gene caused by administration of chemical substance, Gene No. 1993 ([1]; (C), Unigene Rn.18728, defined direction −, rat liver, oral once daily 28 days): − | Behavior of gene caused by administration of chemical substance, Gene No. 813 ([1]; (C), Unigene Rn.201760, defined direction +, rat liver, oral once daily 28 days): − | Behavior of gene caused by administration of chemical substance, Gene No. 2494 ([1]; (C), Unigene Rn.23969, defined direction +, rat liver, oral once daily 28 days): − | Behavior of gene caused by administration of chemical substance, Gene No. 2546 ([1]; (C), Unigene Rn.24561, defined direction −, rat liver, oral once daily 28 days): − | Behavior of gene caused by administration of chemical substance, Gene No. 3776 ([1]; (C), Unigene Rn.43232, defined direction −, rat liver, oral once daily 28 days): − | Behavior of gene caused by administration of chemical substance, Gene No. 3929 ([1]; (C), Unigene Rn.4620, defined direction +, rat liver, oral once daily 28 days): − | Behavior of gene caused by administration of chemical substance, Gene No. 1119 ([1]; (C), Unigene Rn.9757, defined direction +, rat liver, oral once daily 28 days): − | Behavior of gene caused by administration of chemical substance, Gene No. 6742 ([1]; (C), Unigene Rn.9779, defined direction +, rat liver, oral once daily 28 days): − | Behavior of gene caused by administration of chemical substance, Gene No. 5634 ([1]; (C), Unigene Rn.9862, defined direction −, rat liver, oral once daily 28 days): − | Behavior of gene caused by administration of chemical substance, Gene No. 5726 ([1]; (D), Unigene Rn.9939, defined direction −, rat liver, oral once daily 28 days): + | Liver carcinogenicity (liver): Cr+ | Carcinogenicity (rodent): C+

Cl[C@H]1[C@H](Cl)[C@@H](Cl)[C@@H](Cl)[C@H](Cl)[C@H]1Cl [TS057, Lindane]
Behavior of gene caused by administration of chemical substance, Gene No. 154 ([1]; rat, in vivo): − | Behavior of gene caused by administration of chemical substance, Gene No. 533 ([1]; rat, in vivo): + | Behavior of gene caused by administration of chemical substance, Gene No. 725 ([1]; rat, in vivo): − | Behavior of gene caused by administration of chemical substance, Gene No. 813 ([1]; rat, in vivo): − | Behavior of gene caused by administration of chemical substance, Gene No. 893 ([1]; rat, in vivo): − | Behavior of gene caused by administration of chemical substance, Gene No. 1119 ([1]; rat, in vivo): − | Behavior of gene caused by administration of chemical substance, Gene No. 1131 ([1]; rat, in vivo): + | Behavior of gene caused by administration of chemical substance, Gene No. 1163 ([1]; rat, in vivo): − | Behavior of gene caused by administration of chemical substance, Gene No. 1334 ([1]; rat, in vivo): − | Behavior of gene caused by administration of chemical substance, Gene No. 1494 ([1]; rat, in vivo): − | Behavior of gene caused by administration of chemical substance, Gene No. 1562 ([1]; rat, in vivo): − | Behavior of gene caused by administration of chemical substance, Gene No. 1741 ([1]; rat, in vivo): − | Behavior of gene caused by administration of chemical substance, Gene No. 1993 ([1]; rat, in vivo): − | Behavior of gene caused by administration of chemical substance, Gene No. 2026 ([1]; rat, in vivo): − | Behavior of gene caused by administration of chemical substance, Gene No. 2045 ([1]; rat, in vivo): − | Behavior of gene caused by administration of chemical substance, Gene No. 2203 ([1]; rat, in vivo): − | Behavior of gene caused by administration of chemical substance, Gene No. 2494 ([1]; rat, in vivo): − | Behavior of gene caused by administration of chemical substance, Gene No. 2546 ([1]; rat, in vivo): − | Behavior of gene caused by administration of chemical substance, Gene No. 3776 ([1]; rat, in vivo): − | Behavior of gene caused by administration of chemical substance, Gene No. 3929 ([1]; rat, in vivo): − | Behavior of gene caused by administration of chemical substance, Gene No. 4095 ([1]; rat, in vivo): − | Behavior of gene caused by administration of chemical substance, Gene No. 4218 ([1]; rat, in vivo): − | Behavior of gene caused by administration of chemical substance, Gene No. 4846 ([1]; rat, in vivo): − | Behavior of gene caused by administration of chemical substance, Gene No. 4973 ([1]; rat, in vivo): − | Behavior of gene caused by administration of chemical substance, Gene No. 5600 ([1]; rat, in vivo): − | Behavior of gene caused by administration of chemical substance, Gene No. 5634 ([1]; rat, in vivo): − | Behavior of gene caused by administration of chemical substance, Gene No. 5726 ([1]; rat, in vivo): − | Behavior of gene caused by administration of chemical substance, Gene No. 5878 ([1]; rat, in vivo): − | Behavior of gene caused by administration of chemical substance, Gene No. 6026 ([1]; rat, in vivo): + | Behavior of gene caused by administration of chemical substance, Gene No. 6182 ([1]; rat, in vivo): − | Behavior of gene caused by administration of chemical substance, Gene No. 6303 ([1]; rat, in vivo): + | Behavior of gene caused by administration of chemical substance, Gene No. 6620 ([1]; rat, in vivo): − | Behavior of gene caused by administration of chemical substance, Gene No. 6742 ([1]; rat, in vivo): − | Liver carcinogenicity (liver): Cr− | Carcinogenicity (rodent): C−

Source: patent publication US20110039721A1, “METHOD FOR PREDICTION ABOUT CARCINOGENICITY OF SUBSTANCE IN RODENT” (Chemicals Evaluation and Research Institute, priority 2007, published 2011)
